Where a SMILES comes first, the peptide text is derived from it. [ ]: non-standard residue; d: D form. The star is where a group is joined. NHCH2CH2OH = OCCN*; For = O=C*
Key:
[1] = H+/Na+ transport assay of bead-derived peptides (one-point); type: biochemical; design: key: relative activity; mean of two control wells = 1.00; settings: bead-derived peptide solution, EYPC/EYPG LUVs;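 also: relative to parent gramicidin A activity set to 1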
How it was run: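 H+/Na+ transport is monitored through pyranine fluorescence in freshly extruded LUVs after a 30-min room-temperature vortex with each library peptide at a single concentration. Signals are normalized to detergent (Triton X-100) and untreated controls.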

[2] = cell viability/%
How it was run: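 First, library peptide stocks are diluted 250-fold in RPMI1640 with 10% heat-inactivated FBS. Next, they are mixed with P388 cells to give 1 × 10^4 cells/mL and incubated 92 h at 37 °C, 5% CO2. Finally, viability (%) is scored by WST-1 absorbance at 415 nm.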

[3] = test system: Streptococcus pyogenes SSI-9; test: Antibacterial activity assay of bead-derived peptides (three concentrations); type: cell-based; design: key: +++: inhibition by the 640-fold diluted peptide solution; ++: inhibition by the 160-fold diluted solution; +: inhibition by the 40-fold diluted solution; -: no inhibition; settings: S. pyogenes, bead-derived peptide solution, three concentrations
How it was run: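 Bead-derived library peptide stocks in DMSO were tested undiluted and after 4- and 16-fold DMSO dilution against S. pyogenes SSI-9 (2 × 10^5 CFU/well) in cation-adjusted Mueller Hinton Broth with 5% laked horse blood. After 18 h at 37 °C, wells were scored for precipitation of grown cells.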

Row | Compound | H+/Na+ transport activity normalized against the value of 1 (1.00) [1] | viability [2] | antibacterial activity [3]
1 | CNC(=O)C[C@@H](NC(=O)[C@@H](NC(=O)[C@H](NC(=O)[C@H](C)NC(=O)[C@@H](CC(C)C)NC(=O)[C@H](C)NC(=O)CNC(=O)[C@@H](NC=O)C(C)C)C(C)C)C(C)C)C(=O)N[C@@H](Cc1c[nH]c2ccccc12)C(=O)N[C@@H](C(=O)N[C@@H](Cc1c[nH]c2ccccc12)C(=O)N[C@@H](C(=O)N[C@@H](Cc1c[nH]c2ccccc12)C(=O)N[C@H](CC(C)C)C(=O)N[C@@H](Cc1c[nH]c2ccccc12)C(=O)NCCO)C(C)C)C(C)C [compound 3596] (For-VGA[dL]A[dV]V[dD](NHMe)W[dV]W[dV]W[dL]W-NHCH2CH2OH) | 1.06 | 100% | -
2 | CC(C)C[C@@H](NC(=O)[C@H](C)NC(=O)CNC(=O)[C@@H](NC=O)C(C)C)C(=O)N[C@@H](C)C(=O)N[C@H](CC(C)C)C(=O)N[C@H](C(=O)N[C@@H](C(=O)N[C@@H](Cc1c[nH]c2ccccc12)C(=O)N[C@@H](C(=O)N[C@@H](Cc1c[nH]c2ccccc12)C(=O)N[C@H](CC(C)C)C(=O)N[C@@H](Cc1c[nH]c2ccccc12)C(=O)N[C@H](CC(C)C)C(=O)N[C@@H](Cc1c[nH]c2ccccc12)C(=O)NCCO)[C@H](C)O)[C@H](C)O)C(C)C [compound 3858] (For-VGA[dL]A[dL]V[dT]W[dT]W[dL]W[dL]W-NHCH2CH2OH) | 1.28 | 100% | -
3 | CC(C)C[C@@H](NC(=O)[C@H](C)NC(=O)CNC(=O)[C@@H](NC=O)C(C)C)C(=O)N[C@@H](C)C(=O)N[C@@H](C(=O)N[C@H](C(=O)N[C@@H](C(=O)N[C@@H](Cc1c[nH]c2ccccc12)C(=O)N[C@H](CC(C)C)C(=O)N[C@@H](Cc1c[nH]c2ccccc12)C(=O)N[C@@H](C(=O)N[C@@H](Cc1c[nH]c2ccccc12)C(=O)N[C@H](CC(C)C)C(=O)N[C@@H](Cc1c[nH]c2ccccc12)C(=O)NCCO)C(C)C)C(C)C)C(C)C)[C@H](C)O [compound 5555] (For-VGA[dL]A[dT]V[dV]W[dL]W[dV]W[dL]W-NHCH2CH2OH) | 1.22 | 100% | -
4 | CC(C)C[C@@H](NC(=O)[C@H](C)NC(=O)[C@H](NC(=O)[C@H](C)NC(=O)CNC(=O)[C@@H](NC=O)C(C)C)C(C)C)C(=O)N[C@H](C(=O)N[C@H](CC(C)C)C(=O)N[C@@H](Cc1c[nH]c2ccccc12)C(=O)N[C@@H](C(=O)N[C@@H](Cc1c[nH]c2ccccc12)C(=O)N[C@@H](C(=O)N[C@@H](Cc1c[nH]c2ccccc12)C(=O)N[C@@H](C(=O)N[C@@H](Cc1c[nH]c2ccccc12)C(=O)NCCO)C(C)C)C(C)C)[C@H](C)O)C(C)C [compound 8554] (For-VGA[dV]A[dL]V[dL]W[dT]W[dV]W[dV]W-NHCH2CH2OH) | 1.03 | 61.3% | -
5 | CC(C)C[C@@H](NC(=O)[C@H](C)NC(=O)[C@H](NC(=O)[C@H](C)NC(=O)CNC(=O)[C@@H](NC=O)C(C)C)[C@H](C)O)C(=O)N[C@H](C(=O)N[C@@H](C(=O)N[C@@H](Cc1c[nH]c2ccccc12)C(=O)N[C@H](CC(C)C)C(=O)N[C@@H](Cc1c[nH]c2ccccc12)C(=O)N[C@@H](C(=O)N[C@@H](Cc1c[nH]c2ccccc12)C(=O)N[C@H](CC(C)C)C(=O)N[C@@H](Cc1c[nH]c2ccccc12)C(=O)NCCO)C(C)C)C(C)C)C(C)C [compound 10313] (For-VGA[dT]A[dL]V[dV]W[dL]W[dV]W[dL]W-NHCH2CH2OH) | 1.11 | 100% | -
6 | CC(C)C[C@@H](NC(=O)[C@H](Cc1c[nH]c2ccccc12)NC(=O)[C@@H](CC(C)C)NC(=O)[C@H](Cc1c[nH]c2ccccc12)NC(=O)[C@@H](CC(C)C)NC(=O)[C@H](Cc1c[nH]c2ccccc12)NC(=O)[C@H](NC(=O)[C@@H](NC(=O)[C@H](NC(=O)[C@H](C)NC(=O)[C@H](NC(=O)[C@H](C)NC(=O)CNC(=O)[C@@H](NC=O)C(C)C)C(C)C)[C@H](C)O)C(C)C)C(C)C)C(=O)N[C@@H](Cc1c[nH]c2ccccc12)C(=O)NCCO [compound 13151] (For-VGA[dV]A[dT]V[dV]W[dL]W[dL]W[dL]W-NHCH2CH2OH) | 1.01 | 100% | -
7 | CNC(=O)C[C@@H](NC(=O)[C@@H](NC(=O)[C@H](NC(=O)[C@H](C)NC(=O)[C@@H](CC(C)C)NC(=O)[C@H](C)NC(=O)CNC(=O)[C@@H](NC=O)C(C)C)C(C)C)C(C)C)C(=O)N[C@@H](Cc1c[nH]c2ccccc12)C(=O)N[C@@H](C(=O)N[C@@H](Cc1c[nH]c2ccccc12)C(=O)N[C@H](CC(C)C)C(=O)N[C@@H](Cc1c[nH]c2ccccc12)C(=O)N[C@H](CC(C)C)C(=O)N[C@@H](Cc1c[nH]c2ccccc12)C(=O)NCCO)C(C)C [compound 2118] (For-VGA[dL]A[dV]V[dD](NHMe)W[dV]W[dL]W[dL]W-NHCH2CH2OH) | 1.26 | 100% | -
8 | CC(C)C[C@@H](NC(=O)[C@H](Cc1c[nH]c2ccccc12)NC(=O)[C@@H](CC(C)C)NC(=O)[C@@H](NC(=O)[C@H](NC(=O)[C@H](C)NC(=O)[C@H](NC(=O)[C@H](C)NC(=O)CNC(=O)[C@@H](NC=O)C(C)C)C(C)C)C(C)C)C(C)C)C(=O)N[C@@H](Cc1c[nH]c2ccccc12)C(=O)N[C@@H](C(=O)N[C@@H](Cc1c[nH]c2ccccc12)C(=O)N[C@@H](C(=O)N[C@@H](Cc1c[nH]c2ccccc12)C(=O)NCCO)C(C)C)[C@H](C)O [compound 79] (For-VGA[dV]A[dV]V[dL]W[dL]W[dT]W[dV]W-NHCH2CH2OH) | 1.14 | 100% | ++
9 | CC(C)C[C@@H](NC(=O)[C@H](C)NC(=O)CNC(=O)[C@@H](NC=O)C(C)C)C(=O)N[C@@H](C)C(=O)N[C@@H](C(=O)N[C@H](C(=O)N[C@@H](C(=O)N[C@@H](Cc1c[nH]c2ccccc12)C(=O)N[C@H](CC(C)C)C(=O)N[C@@H](Cc1c[nH]c2ccccc12)C(=O)N[C@H](CC(C)C)C(=O)N[C@@H](Cc1c[nH]c2ccccc12)C(=O)N[C@@H](C(=O)N[C@@H](Cc1c[nH]c2ccccc12)C(=O)NCCO)[C@H](C)O)C(C)C)C(C)C)[C@H](C)O [compound 6873] (For-VGA[dL]A[dT]V[dV]W[dL]W[dL]W[dT]W-NHCH2CH2OH) | 1.15 | 100% | -
10 | CNC(=O)C[C@@H](NC(=O)[C@@H](NC(=O)[C@@H](CC(C)C)NC(=O)[C@H](C)NC(=O)[C@@H](CC(C)C)NC(=O)[C@H](C)NC(=O)CNC(=O)[C@@H](NC=O)C(C)C)C(C)C)C(=O)N[C@@H](Cc1c[nH]c2ccccc12)C(=O)N[C@@H](C(=O)N[C@@H](Cc1c[nH]c2ccccc12)C(=O)N[C@@H](C(=O)N[C@@H](Cc1c[nH]c2ccccc12)C(=O)N[C@@H](C(=O)N[C@@H](Cc1c[nH]c2ccccc12)C(=O)NCCO)C(C)C)C(C)C)C(C)C [compound 3931] (For-VGA[dL]A[dL]V[dD](NHMe)W[dV]W[dV]W[dV]W-NHCH2CH2OH) | 1.16 | 100% | -
11 | CC(C)C[C@@H](NC(=O)[C@H](C)NC(=O)[C@H](NC(=O)[C@H](C)NC(=O)CNC(=O)[C@@H](NC=O)C(C)C)C(C)C)C(=O)N[C@H](C(=O)N[C@H](CC(C)C)C(=O)N[C@@H](Cc1c[nH]c2ccccc12)C(=O)N[C@@H](C(=O)N[C@@H](Cc1c[nH]c2ccccc12)C(=O)N[C@@H](C(=O)N[C@@H](Cc1c[nH]c2ccccc12)C(=O)N[C@H](CC(C)C)C(=O)N[C@@H](Cc1c[nH]c2ccccc12)C(=O)NCCO)C(C)C)[C@H](C)O)C(C)C [compound 5572] (For-VGA[dV]A[dL]V[dL]W[dT]W[dV]W[dL]W-NHCH2CH2OH) | 1.24 | 100% | +
12 | CC(C)C[C@@H](NC(=O)[C@@H](NC(=O)[C@H](NC(=O)[C@H](C)NC(=O)[C@H](NC(=O)[C@H](C)NC(=O)CNC(=O)[C@@H](NC=O)C(C)C)[C@H](C)O)C(C)C)C(C)C)C(=O)N[C@@H](Cc1c[nH]c2ccccc12)C(=O)N[C@@H](C(=O)N[C@@H](Cc1c[nH]c2ccccc12)C(=O)N[C@@H](C(=O)N[C@@H](Cc1c[nH]c2ccccc12)C(=O)N[C@@H](C(=O)N[C@@H](Cc1c[nH]c2ccccc12)C(=O)NCCO)C(C)C)C(C)C)[C@H](C)O [compound 1156] (For-VGA[dT]A[dV]V[dL]W[dT]W[dV]W[dV]W-NHCH2CH2OH) | 1.03 | 85.9% | -
13 | CC(C)C[C@@H](NC(=O)[C@H](Cc1c[nH]c2ccccc12)NC(=O)[C@@H](CC(C)C)NC(=O)[C@H](Cc1c[nH]c2ccccc12)NC(=O)[C@H](NC(=O)[C@H](Cc1c[nH]c2ccccc12)NC(=O)[C@@H](CC(C)C)NC(=O)[C@@H](NC(=O)[C@H](NC(=O)[C@H](C)NC(=O)[C@H](NC(=O)[C@H](C)NC(=O)CNC(=O)[C@@H](NC=O)C(C)C)[C@H](C)O)C(C)C)C(C)C)C(C)C)C(=O)N[C@@H](Cc1c[nH]c2ccccc12)C(=O)NCCO [compound 8827] (For-VGA[dT]A[dV]V[dL]W[dV]W[dL]W[dL]W-NHCH2CH2OH) | 1.22 | 80.7% | -

Reference: paper PMC7531004, “Discovery of gramicidin A analogues with altered activities by multidimensional screening of a one-bead-one-compound library” (Nature Communications, 2020)
